The values that follow come from patent US9908877B2, “Imidazo[1,5-a]pyridinium ion fluorophores, and methods of making and using the same” (Indiana University Research and Technology Corporation, priority 2013, dated 2018).

Series [1] can be described thus: Fluorescence response to pH in buffered water. The conditions noted are these: buffered water, 298 K, pH from 7.5 to 2.5. Format: physicochemical. The procedure: Stock solutions of each compound (having a concentration of from 1-5 mM) were prepared by dissolving the corresponding salts of the compounds in methanol or 1V, N-dimethylformamide, and then diluting the same with acetonitrile or buffered water having a pH of from 2.5 to 7.5 derived from 0.2 M […] and 0.1 M citric acid, to achieve a sample solution having a compound concentration of 30.0 μM.
The emission spectrum for each sample was obtained. The results are illustrated by the plot in FIG. 2A.
The emission spectrum for each sample was obtained. […] The results are illustrated in the plot of FIG. 2B.
The fluorescence emission spectrum of Compound 8 in water having a pH of 2.5 was also obtained and is illustrated by the curved line with a peak at 360 nm in FIG. 5B.
Compounds 10, 11, and 12 were each individually added, at a concentration of 30 μM, to water having a pH=7.5 and the emission spectra of each were obtained. […] As the pH was decreased from 7.5 to 2.5 in 0.5 pH unit increments, fluorescence emission at 600 nm remained relatively nonexistent and the intensity of the fluorescence emission at 400 nm increased in correlation to the decrease in pH. FIG. 8A illustrates the emission properties of Compound 12.

Series [2] is described as follows: pKa from fluorescence intensity versus pH. Format: physicochemical. The conditions noted are these: non-linear regression of fluorescence intensity versus pH, buffered water pH 2.5 to 7.5. The procedure: Method for Determining pKa
A pKa value is determined by plotting fluorescence intensity (Imax) at emission maxima against pH and fitting the result to the non-linear expression in equation (1) (i.e., eq.(1)). In eq (1), a and b are the molar coefficient of the acid (HA) and base (A^−) form, respectively, and c is the combined overall concentration of the acid and base form. i.e., c=[HA]+[A^−].

Take `CCN(CC)c1ccc(-c2c3cccc[n+]3cn2-c2ccc(OC)cc2)cc1.[Cl-]` [Compound 6, 1-(4-(diethylamino)phenyl)-2-(4-methoxyphenyl)-2H-imidazo[1,5-a]pyridin-4-ium chloride]: in series [1], the “λem,max of the emission that decreases as pH decreases” value worked out at 580 nm and the “λem,max of the emission that increases as pH decreases” value turned out to be 400 nm. In addition, the pKa in series [2] was found to be 5.

By pKa is commonly meant the pH at which an ionisable group is half protonated. Higher therefore signals a group that holds its proton tightly.
